Laboratory results taken from patent publication US11040028B2, “Penicinotam derivative, preparation method and use thereof” (OCEAN UNIVERSITY OF CHINA, priority 2017, dated 2021).

Legend:
Type in all cases: cell-based
[1] = test system: human hepatic stellate cells LX-2; assay: Anti-fibrosis activity test: inhibition of proliferation of human hepatic stellate cells LX-2 (CCK-8); conditions: human hepatic stellate cells LX-2, CCK-8, 48 hours
Description: (§1) BHK-21 cells in exponential growth phase were selected. After the fusion growth reached 85-95%, normal passage method was utilized to digest and collect the cells, followed by cell counting and adjusting the cell density to 2×10^4 cells/mL. The cells were seeded into 96-well plates, 100 μL/well, and were incubated under the condition of 5% CO2 at 37° C.
(§2) The supernatant was removed after the cells had adhered to the wall for 24 hours. The culture solution containing the prepared compounds at different concentrations were added to the wells, 100 μL/well, each concentration in triplicate. The cells were subcultured for 48 hours after administration. Commercially available pirfenidone was employed as the positive control.
(§3) 10 μL of CCK-8 solution ( 1/10 of the volume of the culture solution) was added to each well 48 hours after the administration, and incubated for 2 hours. The absorbance (A) of each well was determined by a microplate reader at 450 nm wavelength. The inhibition rate against cell proliferation for each compound was calculated based on A, wherein inhibition rate against cell proliferation (inhibition ratio, IR)=(1−value of experimental group (Ai)/value of blank control group (Ao))×100% and the IC50 value of each compound was calculated by the data processing software.
(§4) Using the same protocol for the cell experiments, the inhibitory activity of the test compounds against the proliferation of human lung fibroblasts HFL1, human hepatic stellate cells LX-2, human fibrosarcoma cells HT-1080, human dermal fibroblasts CCC-ESF-1, human embryonic lung fibroblast IMR-90, cardiac fibroblast RAT-iCell-C002 was assayed.

[2] = test system: human fibrosarcoma cells HT-1080; assay: Anti-fibrosis activity test: inhibition of proliferation of human fibrosarcoma cells HT-1080 (CCK-8); conditions: human fibrosarcoma cells HT-1080, CCK-8, 48 hours
Description: as §1, §2, §3, §4

[3] = test system: human embryonic lung fibroblast IMR-90; assay: Anti-fibrosis activity test: inhibition of proliferation of human embryonic lung fibroblast IMR-90 (CCK-8); conditions: human embryonic lung fibroblast IMR-90, CCK-8, 48 hours
Description: as §1, §2, §3, §4

[4] = test system: cardiac fibroblast RAT-iCell-C002; assay: Anti-fibrosis activity test: inhibition of proliferation of cardiac fibroblast RAT-iCell-C002 (CCK-8); conditions: Cardiac fibroblast, 48 h, cardiac fibroblast RAT-iCell-C002, CCK-8, 48 hours
Description: as §1, §2, §3, §4

[5] = test system: human lung fibroblasts HFL1; assay: Anti-fibrosis activity test: inhibition of proliferation of human lung fibroblasts HFL1 (CCK-8); conditions: human lung fibroblasts HFL1, CCK-8, 48 hours
Description: as §1, §2, §3, §4

BHK-21 cells = assay: Anti-fibrosis activity test: inhibition of BHK-21 cell proliferation (CCK-8); conditions: CCK-8, 48 hours after administration
Description: as §1, §2, §3

[6] = test system: human dermal fibroblasts CCC-ESF-1; assay: Anti-fibrosis activity test: inhibition of proliferation of human dermal fibroblasts CCC-ESF-1 (CCK-8); conditions: human dermal fibroblasts CCC-ESF-1, CCK-8, 48 hours
Description: as §1, §2, §3, §4

[7] = Mesocricetus auratus, BHK-21, 48 h

Measured: IC50

O=C(Cn1c2c(c(=O)c3ccccc31)C(=O)n1cccc1-2)c1ccc(C(F)(F)F)cc1 [Compound 91a, 4-(2-Oxo-2-(4-(trifluoromethyl)phenyl)ethyl)-9H-pyrrolizino[1,2-b]quinoline-9,10(4)-dione]
5 to 20 mM: [2]
0.05 to 5 mM: [1]

CC(C)CCn1c2c(c(=O)c3cc(F)ccc31)C(=O)n1cccc1-2 [Compound 105a, 7-Fluoro-4-isopentyl-9H-pyrrolizino[1,2-b]quinoline-9,10(4H)-dione]
0.05 to 5 mM: [3] | [1]; Homo sapiens, 48 h | [4] | [5]; Homo sapiens, HFL1, 48 h | BHK-21 cells; [7] | [2]; Homo sapiens, HT-1080, 48 h | [6]; Fibroblast

CC(C)CCOc1c2c(nc3ccc(F)cc13)-c1cccn1C2=O [Compound 105b, 7-fluoro-9-(isopentyloxy)-10H-pyrrolizino[1,2-b]quinolin-10-one]
0.05 to 5 mM: [3] | [1]; Homo sapiens, 48 h | [4] | [5]; Homo sapiens, HFL1, 48 h | BHK-21 cells; [7] | [2]; Homo sapiens, HT-1080, 48 h | [6]; Fibroblast

O=C1c2c([nH]c3cc(N4CCNCC4)c(F)cc3c2=O)-c2cccn21 [Compound 346a, 7-Fluoro-6-(piperazin-1-yl)-9H-pyrrolizino[1,2-b]quinoline-9,10(4H)-dione]
0.05 to 5 mM: [3] | [1]; Homo sapiens, 48 h | [4] | [5]; Homo sapiens, HFL1, 48 h | BHK-21 cells; [7] | [2]; Homo sapiens, HT-1080, 48 h | [6]; Fibroblast

O=C1c2c(nc3cc(N4CCNCC4)c(F)cc3c2O)-c2cccn21 [Compound 346b, 7-fluoro-9-hydroxy-6-(piperazin-1-yl)-10H-pyrrolizino[1,2-b]quinolin-10-one]
0.05 to 5 mM: [3] | [1]; Homo sapiens, 48 h | [4] | [5]; Homo sapiens, HFL1, 48 h | BHK-21 cells; [7] | [2]; Homo sapiens, HT-1080, 48 h | [6]; Fibroblast

CC(C)CCn1c2c(c(=O)c3cc(F)c(N4CCNCC4)cc31)C(=O)n1cccc1-2 [Compound 347a, 7-Fluoro-4-isopentyl-6-(piperazin-1-yl)-9H-pyrrolizino[1,2-b]quinoline-9,10(4H)-dione]
0.05 to 5 mM: [3] | [4] | [5]; Homo sapiens, HFL1, 48 h | BHK-21 cells; [7] | [2]; Homo sapiens, HT-1080, 48 h | [6]; Fibroblast
5 to 20 mM: [1]; Homo sapiens, 48 h

CC(C)CCOc1c2c(nc3cc(N4CCNCC4)c(F)cc13)-c1cccn1C2=O [Compound 347b, 7-fluoro-9-(isopentyloxy)-6-(piperazin-1-yl)-10H-pyrrolizino[1,2-b]quinolin-10-one]
0.05 to 5 mM: [3] | [1]; Homo sapiens, 48 h | [4] | [5]; Homo sapiens, HFL1, 48 h | BHK-21 cells; [7] | [2]; Homo sapiens, HT-1080, 48 h | [6]; Fibroblast

O=C1c2c(n(Cc3ccccc3Cl)c3cc(Cl)ccc3c2=O)-c2cccn21 [Compound 510a, 6-Chloro-4-(2-chlorobenzyl)-9H-pyrrolizino[1,2-b]quinoline-9,10(4H)-dione]
< 0.05 mM: BHK-21 cells; [7]
0.05 to 5 mM: [3] | [1]; Homo sapiens, 48 h | [4] | [5]; Homo sapiens, HFL1, 48 h | [2]; Homo sapiens, HT-1080, 48 h | [6]; Fibroblast

O=C1c2c(nc3cc(Cl)ccc3c2OCc2ccccc2Cl)-c2cccn21 [Compound 510b, 6-chloro-9-((2-chlorobenzyl)oxy)-10H-pyrrolizino[1,2-b]quinolin-10-one]
0.05 to 5 mM: [3] | [1]; Homo sapiens, 48 h | [4] | [5]; Homo sapiens, HFL1, 48 h | BHK-21 cells; [7] | [2]; Homo sapiens, HT-1080, 48 h | [6]; Fibroblast

N#Cc1ccc2nc3c(c(OCc4ccc(-c5ccccc5C#N)cc4)c2c1)C(=O)n1cccc1-3 [Compound 629b, 9-((2′-cyano-[1,1′-biphenyl]-4-yl)methoxy)-10-oxo-10H-pyrrolizino[,2-b]quinoline-7-carbonitrile]
0.05 to 5 mM: BHK-21 cells | [6]

O=C1c2c(n(Cc3ccc(F)cc3F)c3cc(N4CCNCC4)ccc3c2=O)-c2cccn21 [Compound 630a, 4-(2,4-Difluorobenzyl)-6-(piperazin-1-yl)-9H-pyrrolizino[1,2-b]quinoline-9,10(4H)-dione]
< 0.05 mM: [5] | BHK-21 cells
